Laboratory results reported in PMC4648050, “Discovery of Inhibitors of Trypanosoma brucei by Phenotypic Screening of a Focused Protein Kinase Library” (Chemmedchem, 2015).

Assays:
Format in all cases: biochemical, human/mammalian
Conditions in all cases: compound at 10 μM, read-out: % of activity respect of the control
[1] = molecular target: T1, BRSK2 (Homo sapiens, UniProt Q8IWQ3); experiment: Kinase panel: BRSK2
T1 sequence (Q8IWQ3 1-736): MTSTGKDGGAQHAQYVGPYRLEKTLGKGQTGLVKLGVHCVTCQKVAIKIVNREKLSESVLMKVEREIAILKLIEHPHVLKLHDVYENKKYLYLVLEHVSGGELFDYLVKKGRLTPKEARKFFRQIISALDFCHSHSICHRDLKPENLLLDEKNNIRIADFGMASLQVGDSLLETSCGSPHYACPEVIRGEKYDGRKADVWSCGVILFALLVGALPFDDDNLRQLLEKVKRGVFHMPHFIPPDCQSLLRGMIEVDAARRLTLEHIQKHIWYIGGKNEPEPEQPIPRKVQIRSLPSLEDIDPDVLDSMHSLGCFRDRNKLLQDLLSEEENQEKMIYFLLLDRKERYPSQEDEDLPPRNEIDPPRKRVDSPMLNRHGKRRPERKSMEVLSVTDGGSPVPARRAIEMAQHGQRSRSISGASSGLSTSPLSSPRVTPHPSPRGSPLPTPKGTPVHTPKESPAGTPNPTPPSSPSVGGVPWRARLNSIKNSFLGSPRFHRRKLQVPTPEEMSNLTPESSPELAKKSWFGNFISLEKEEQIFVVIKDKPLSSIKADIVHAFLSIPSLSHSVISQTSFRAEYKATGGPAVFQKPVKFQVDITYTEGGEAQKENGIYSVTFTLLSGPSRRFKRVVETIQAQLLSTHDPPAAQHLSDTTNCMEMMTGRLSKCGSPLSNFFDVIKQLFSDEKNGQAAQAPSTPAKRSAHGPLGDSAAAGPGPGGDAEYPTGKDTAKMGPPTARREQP
Procedure: (§1) The DDU kinase-focused compound set contains lead-like scaffolds that are designed to target protein kinases; they have kinase hinge binding motifs. Four of the 1H-imidazopyrazinones were screened against a human/mammalian kinase panel at the University of Dundee (http://www.kinase-screen.mrc.ac.uk) at a concentration of 10 μM. At the time of testing the panel contained 79 mammalian kinases selected to provide a broad coverage of the mammalian kinome (∼500 kinases in the human genome).[3] None of the compounds were active against any of the kinases at 10 μM.

[2] = molecular target: Aurora B (Homo sapiens, UniProt Q96GD4); experiment: Kinase panel: Aurora B
Aurora B, sequence (Q96GD4 whole entry): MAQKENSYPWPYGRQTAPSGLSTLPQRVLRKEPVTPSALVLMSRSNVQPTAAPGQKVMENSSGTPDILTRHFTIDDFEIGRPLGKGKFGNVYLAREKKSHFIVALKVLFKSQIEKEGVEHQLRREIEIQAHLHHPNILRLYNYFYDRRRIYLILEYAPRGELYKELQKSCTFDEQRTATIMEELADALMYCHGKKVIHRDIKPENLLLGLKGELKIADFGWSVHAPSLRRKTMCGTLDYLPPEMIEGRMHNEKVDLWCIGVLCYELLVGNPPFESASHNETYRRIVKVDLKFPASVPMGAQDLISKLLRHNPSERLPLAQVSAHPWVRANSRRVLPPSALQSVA
Procedure: as §1

[3] = molecular target: PKCa (Homo sapiens, UniProt P17252); experiment: Kinase panel: PKCa
Procedure: as §1

[4] = molecular target: MELK (Homo sapiens, UniProt Q14680); experiment: Kinase panel: MELK
MELK, sequence (Q14680 whole entry): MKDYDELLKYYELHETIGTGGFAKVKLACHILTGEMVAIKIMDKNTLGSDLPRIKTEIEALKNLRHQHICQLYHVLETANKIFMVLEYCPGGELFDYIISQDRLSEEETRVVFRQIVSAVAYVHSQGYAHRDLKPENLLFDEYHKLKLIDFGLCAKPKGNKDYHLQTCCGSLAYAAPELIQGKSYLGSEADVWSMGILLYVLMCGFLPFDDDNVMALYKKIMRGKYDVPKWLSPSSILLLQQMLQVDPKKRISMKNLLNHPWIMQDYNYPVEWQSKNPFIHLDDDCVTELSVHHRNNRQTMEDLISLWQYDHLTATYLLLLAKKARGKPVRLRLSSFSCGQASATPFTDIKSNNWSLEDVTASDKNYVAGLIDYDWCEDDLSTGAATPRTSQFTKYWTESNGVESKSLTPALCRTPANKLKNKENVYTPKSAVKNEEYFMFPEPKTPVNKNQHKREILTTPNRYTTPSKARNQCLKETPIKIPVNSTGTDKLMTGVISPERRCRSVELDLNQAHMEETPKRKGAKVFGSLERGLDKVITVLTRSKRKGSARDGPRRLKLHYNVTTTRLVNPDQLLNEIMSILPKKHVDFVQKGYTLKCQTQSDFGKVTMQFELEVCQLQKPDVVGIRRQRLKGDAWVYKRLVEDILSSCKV
Procedure: as §1

[5] = molecular target: FGF-R1 (Homo sapiens, UniProt P11362); experiment: Kinase panel: FGF-R1
Procedure: as §1

[6] = molecular target: JNK2 (Homo sapiens, UniProt P45984); experiment: Kinase panel: JNK2
JNK2, sequence (P45984 whole entry): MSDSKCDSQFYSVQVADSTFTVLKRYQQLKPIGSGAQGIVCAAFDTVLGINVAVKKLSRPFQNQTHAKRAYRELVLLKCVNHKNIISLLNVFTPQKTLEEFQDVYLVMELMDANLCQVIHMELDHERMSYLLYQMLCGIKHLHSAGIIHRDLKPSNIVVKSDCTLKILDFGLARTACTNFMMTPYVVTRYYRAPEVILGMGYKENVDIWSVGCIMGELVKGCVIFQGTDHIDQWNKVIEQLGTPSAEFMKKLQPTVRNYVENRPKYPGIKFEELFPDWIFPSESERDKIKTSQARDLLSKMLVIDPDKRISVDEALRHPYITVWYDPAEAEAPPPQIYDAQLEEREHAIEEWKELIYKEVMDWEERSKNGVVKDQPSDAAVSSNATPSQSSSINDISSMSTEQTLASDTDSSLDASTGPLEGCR
Procedure: as §1

[7] = molecular target: EPH A2 (Homo sapiens, UniProt P29317); experiment: Kinase panel: EPH A2
EPH A2, sequence (P29317 24-976): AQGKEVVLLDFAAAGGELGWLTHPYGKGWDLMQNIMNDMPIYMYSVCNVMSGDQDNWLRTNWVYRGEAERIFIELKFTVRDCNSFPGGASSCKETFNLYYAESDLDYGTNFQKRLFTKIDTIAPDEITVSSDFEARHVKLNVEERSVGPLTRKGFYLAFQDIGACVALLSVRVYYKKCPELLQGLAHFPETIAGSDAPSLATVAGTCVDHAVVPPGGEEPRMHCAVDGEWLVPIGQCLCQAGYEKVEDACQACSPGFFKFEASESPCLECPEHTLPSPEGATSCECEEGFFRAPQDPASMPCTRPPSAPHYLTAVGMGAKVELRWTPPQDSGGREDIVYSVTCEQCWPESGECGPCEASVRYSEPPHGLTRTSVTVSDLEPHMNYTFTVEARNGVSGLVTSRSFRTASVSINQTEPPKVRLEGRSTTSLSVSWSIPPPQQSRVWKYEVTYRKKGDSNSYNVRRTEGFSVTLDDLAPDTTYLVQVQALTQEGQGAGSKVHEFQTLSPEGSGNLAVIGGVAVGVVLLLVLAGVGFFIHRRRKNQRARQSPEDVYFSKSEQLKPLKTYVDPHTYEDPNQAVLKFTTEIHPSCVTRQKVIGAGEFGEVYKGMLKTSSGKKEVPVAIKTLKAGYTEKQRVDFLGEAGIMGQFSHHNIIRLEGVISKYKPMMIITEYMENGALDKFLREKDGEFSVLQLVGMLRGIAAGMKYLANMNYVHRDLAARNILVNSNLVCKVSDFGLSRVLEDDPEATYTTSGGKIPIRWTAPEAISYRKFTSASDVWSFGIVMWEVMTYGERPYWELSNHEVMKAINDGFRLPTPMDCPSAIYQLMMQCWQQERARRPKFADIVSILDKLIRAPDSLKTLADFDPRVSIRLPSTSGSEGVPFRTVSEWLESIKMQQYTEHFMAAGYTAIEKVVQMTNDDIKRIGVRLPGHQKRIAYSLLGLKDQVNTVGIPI
Procedure: as §1

[8] = molecular target: VEG-FR (Homo sapiens, UniProt P17948); experiment: Kinase panel: VEG-FR
VEG-FR, sequence (P17948 27-1338): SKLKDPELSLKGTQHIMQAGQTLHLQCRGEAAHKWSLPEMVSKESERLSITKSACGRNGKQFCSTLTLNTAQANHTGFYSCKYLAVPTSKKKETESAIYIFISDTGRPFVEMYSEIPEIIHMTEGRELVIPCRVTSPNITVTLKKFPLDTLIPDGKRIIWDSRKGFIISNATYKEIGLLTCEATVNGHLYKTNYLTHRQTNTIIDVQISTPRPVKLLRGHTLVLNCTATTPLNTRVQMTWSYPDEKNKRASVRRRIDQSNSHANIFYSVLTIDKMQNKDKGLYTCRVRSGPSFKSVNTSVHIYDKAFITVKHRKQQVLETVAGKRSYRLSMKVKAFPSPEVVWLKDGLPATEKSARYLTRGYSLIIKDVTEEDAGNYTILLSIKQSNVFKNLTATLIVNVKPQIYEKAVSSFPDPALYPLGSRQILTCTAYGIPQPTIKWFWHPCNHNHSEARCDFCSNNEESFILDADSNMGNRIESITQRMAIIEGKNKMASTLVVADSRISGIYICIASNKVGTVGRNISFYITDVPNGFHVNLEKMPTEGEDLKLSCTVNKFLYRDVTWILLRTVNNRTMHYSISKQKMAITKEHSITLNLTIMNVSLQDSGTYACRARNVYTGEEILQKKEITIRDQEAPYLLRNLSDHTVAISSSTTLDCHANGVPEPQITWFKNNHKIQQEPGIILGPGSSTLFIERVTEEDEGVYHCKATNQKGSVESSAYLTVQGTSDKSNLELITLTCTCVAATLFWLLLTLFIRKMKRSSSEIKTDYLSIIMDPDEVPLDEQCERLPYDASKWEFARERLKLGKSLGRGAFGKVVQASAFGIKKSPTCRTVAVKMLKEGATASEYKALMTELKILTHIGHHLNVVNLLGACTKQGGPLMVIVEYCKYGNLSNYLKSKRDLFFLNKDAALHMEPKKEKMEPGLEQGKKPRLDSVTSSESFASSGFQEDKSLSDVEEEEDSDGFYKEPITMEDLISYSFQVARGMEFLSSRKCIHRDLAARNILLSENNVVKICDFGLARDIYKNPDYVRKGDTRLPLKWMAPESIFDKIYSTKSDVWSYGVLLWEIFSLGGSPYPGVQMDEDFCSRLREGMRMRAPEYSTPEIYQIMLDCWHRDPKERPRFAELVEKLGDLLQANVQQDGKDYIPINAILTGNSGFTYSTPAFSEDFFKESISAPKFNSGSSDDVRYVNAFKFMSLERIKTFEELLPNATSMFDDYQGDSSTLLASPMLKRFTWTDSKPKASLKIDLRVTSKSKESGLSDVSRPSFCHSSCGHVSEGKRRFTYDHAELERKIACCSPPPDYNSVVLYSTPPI
Procedure: as §1

[9] = molecular target: T2, DYRK3 (Homo sapiens, UniProt O43781); experiment: Kinase panel: DYRK3
T2 sequence (O43781 1-588): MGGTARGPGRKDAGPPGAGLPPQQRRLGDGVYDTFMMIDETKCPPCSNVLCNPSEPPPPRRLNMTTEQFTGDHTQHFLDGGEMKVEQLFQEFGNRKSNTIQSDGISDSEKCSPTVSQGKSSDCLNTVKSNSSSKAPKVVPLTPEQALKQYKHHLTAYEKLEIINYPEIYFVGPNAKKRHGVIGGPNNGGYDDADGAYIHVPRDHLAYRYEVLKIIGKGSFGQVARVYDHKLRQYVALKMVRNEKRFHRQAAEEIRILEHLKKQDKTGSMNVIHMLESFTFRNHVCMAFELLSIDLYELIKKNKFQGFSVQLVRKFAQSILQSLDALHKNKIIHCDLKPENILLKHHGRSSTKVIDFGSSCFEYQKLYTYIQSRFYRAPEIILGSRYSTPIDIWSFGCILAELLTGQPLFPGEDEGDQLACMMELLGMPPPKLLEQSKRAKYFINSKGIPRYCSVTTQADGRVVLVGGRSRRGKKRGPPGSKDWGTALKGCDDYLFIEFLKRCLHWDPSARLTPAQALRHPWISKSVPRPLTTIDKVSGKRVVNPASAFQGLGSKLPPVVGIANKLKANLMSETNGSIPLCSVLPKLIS
Procedure: as §1

[10] = molecular target: T3, PKC zeta (Homo sapiens, UniProt Q05513); experiment: Kinase panel: PKC zeta
T3 sequence (Q05513 1-592): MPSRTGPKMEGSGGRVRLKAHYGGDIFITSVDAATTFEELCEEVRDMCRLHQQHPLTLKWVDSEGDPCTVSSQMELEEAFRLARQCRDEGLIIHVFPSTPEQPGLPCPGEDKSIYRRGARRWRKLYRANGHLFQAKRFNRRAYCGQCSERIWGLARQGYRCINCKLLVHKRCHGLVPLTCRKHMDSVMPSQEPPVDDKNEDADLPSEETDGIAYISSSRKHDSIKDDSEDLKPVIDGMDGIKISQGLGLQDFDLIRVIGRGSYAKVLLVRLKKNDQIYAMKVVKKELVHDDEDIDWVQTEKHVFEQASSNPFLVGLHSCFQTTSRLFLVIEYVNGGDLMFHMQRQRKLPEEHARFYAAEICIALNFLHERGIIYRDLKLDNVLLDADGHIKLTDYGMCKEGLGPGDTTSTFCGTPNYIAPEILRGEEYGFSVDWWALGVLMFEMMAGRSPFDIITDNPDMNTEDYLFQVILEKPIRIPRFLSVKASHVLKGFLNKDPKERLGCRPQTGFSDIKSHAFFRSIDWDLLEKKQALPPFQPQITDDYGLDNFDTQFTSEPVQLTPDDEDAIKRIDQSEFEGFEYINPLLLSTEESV
Procedure: as §1

| Structure (SMILES) | remaining activity at 10 µM [1] [%] | remaining activity at 10 µM [2] [%] | remaining activity at 10 µM [3] [%] | remaining activity at 10 µM [4] [%] | remaining activity at 10 µM [5] [%] | remaining activity at 10 µM [6] [%] | remaining activity at 10 µM [7] [%] | remaining activity at 10 µM [8] [%] | remaining activity at 10 µM [9] [%] | remaining activity at 10 µM [10] [%] |
| --- | --- | --- | --- | --- | --- | --- | --- | --- | --- | --- |
| CC(c1ccccc1)n1c(=O)[nH]c2ncc(-c3ccc(F)cc3)nc21 (stereo not shown) [Compound 1] | 82 | 117 | 101 | 118 | 95 | 104 | 105 | 117 | 109 | 94 |
| O=c1[nH]c2ncc(-c3ccc(F)cc3)nc2n1CC1CC1 [Compound 10] | 90 | 93 | 106 | 125 | 88 | 97 | 96 | 98 | 108 | 90 |
| O=c1[nH]c2ncc(-c3ccc(F)cc3)nc2n1C1CCCCC1 [Compound 12, 1-Cyclohexyl-6-(4-fluorophenyl)-1H-imidazo[4,5-b]pyrazin-2(3H)-one] | 100 | 85 | 94 | 110 | 96 | 93 | 97 | 107 | 99 | 90 |
| C[C@H](c1ccccc1)n1c(=O)[nH]c2ncc(-c3ccccc3)nc21 [Compound 14, (R)-6-Phenyl-1-(1-phenylethyl)-1H-imidazo[4,5-b]pyrazin-2(3H)-one] | 72 | 99 | 98 | 100 | 63 | 96 | 89 | 73 | 100 | 88 |
